Seven compounds from patent publication US20060222647A1, “Methods and compositions for modulating the activity of PDE5” (priority 1993, published 2006) can be followed below.

Each structure is given as a SMILES string. pIC50, pKd: −log10 of the molar value. Read-outs that look alike come from different tables or passages of the source. A value given as a limit tells only on which side of the number the result lay.

Assay [1] deals with expressed bovine cGB-PDE cDNA protein product (Bos taurus, UniProt Q28156). Nature of the assay: cGMP phosphodiesterase activity of extracts of COS cells transfected with bovine cGB-PDE, in presence of PDE inhibitors. Format: biochemical.
Procedure: The reaction mixture was incubated for 10 minutes at 30° C., and then stopped by boiling. Next, 10 μl of 10 mg/ml Crotalus atrox venom (Sigma) was added followed by a 10 minute incubation at 30° C.
The next assay addresses D478A mutant cGB-PDE (Bos taurus, UniProt Q28156, D478A). In words: cGMP-binding kinetics of D478A mutant cGB-PDE. Further details: species or system bovine.
In assay [2] the target is T1, recombinant mouse PDE5 (Mus musculus, UniProt Q8CG03).
T1 construct: made in house; host or cells: HEK 293 cells, transient transfection; lysate supernatant or Mono Q fractions
In words: PDE5 activity assay of recombinant mouse PDE5 expressed in HEK 293 cells. The assay is classed as biochemical. The following applies: for pIC50: IC50 for sildenafil inhibition. On the procedure: Phosphodiesterase assays were carried out according to established procedures. All assays were performed for 5 min (unless otherwise indicated) at 30° C. using different concentrations of cGMP (0.1-10 μM) as substrates. Protein concentrations were determined by the Coomassie Plus protein assay (Pierce).
Recombinant mouse PDE5 was expressed in HEK 293 cells. […] The cells were lysed in a small volume of homogenization buffer in order to obtain a concentrated extract, and then the cell extract was preincubated with 50 μM cGMP on ice without PDE inhibitors (filled triangles, FIGS. 11A and 11B) or with 0.2 μM sildenafil (filled circles, FIG. 11B). At different time points aliquots were diluted 1/400-1/500, and different amounts of diluted extract (additional dilution 1/5-1/10) were used for PDE5 activity assayed at 0.1 μM cGMP for 5 min at 30° C. An additional portion of 50 μM cGMP was added to the preincubation mixture at 60 min after the start of preincubation as indicated by an arrow (open triangles, FIG. 11A). PDE5 activity was expressed as pmol/min/μg of protein. […] The percent of 50 μM cGMP hydrolysis at different time points was measured using the PDE5 activity assay.
To investigate this further, PDE5 was preincubated of with 50 μM cGMP on ice and an aliquot was diluted and assayed with either 0.1 μM, 1.0 μM or […] cGMP for 5 min at 30° C. Data are expressed as fold activation of PDE5 activity after preincubation with 50 μM cGMP (FIG. 12A).
PDE5 activity was measured at 0.1 μM (FIG. 16A), 1.0 μM (FIG. 16B) or 10 μM cGMP (FIG. 16C). It was analyzed without any treatments (filled squares), or after preincubation with 50 μM cGMP on ice (filled triangles), or after preincubation with mAb/P3B2 for 30 min on ice (filled circles). Treatment of PDE5 with mAb/P3B2 for 30 min on ice preceded preincubation with 50 μM cGMP (open circles). PDE5 activity was expressed as […].
Kinetic and inhibitory characteristics of activated PDE5. […] FIG. 18A depicts a Lineweaver-Burk double-reciprocal plot (0.1-10 μM cGMP) of activated (after preincubation with cGMP on ice) (filled triangles) PDE5 and mAb/P3B2 treated PDE5 (filled circles). PDE5 activity was expressed as pmol/min/μg of protein. […] PDE5 activities, assayed at each substrate concentration without sildenafil, were expressed as 100%. Km, Vmax and IC50 values were calculated using GraphPad Prism 2.0 C (GraphPad Software, San Diego, Calif.).

For the next assay, the target named is T2, recombinant PDE5 (Mus musculus, UniProt Q8CG03).
T2 construct: made in house; host or cells: HEK 293 cells, transient transfection; lysate supernatant or Mono Q fractions
In words: cGMP saturation binding assay (Millipore filter binding). The following applies: 0.01-20 μM cGMP, IBMX present, 30 min on ice. As to the method:
Binding studies were conducted by the Millipore filter binding assay in a total volume of 40 μl containing binding buffer (50 mM Tris-HCl, pH 7.5, 2.0 mM EDTA, 1 mM DTT, 100 mM NaCl) and 0.1 mM IBMX in the presence of 0.01 -20 μM ^3H-cGMP. In some experiments an additional 30 min preincubation of recombinant PDE5 with monoclonal antibodies (mAb/P3B2 or mAb/P4D8) was performed before addition of cGMP. Following a 30 min incubation on ice, 1 ml of ice cold binding buffer was added to the assays. The samples were immediately filtered through a Millipore HAWP nitrocellulose membrane (pore size 0.45 μM, 24 mm diameter) and rinsed three times with ice cold binding buffer (10 ml each). The filters were dissolved in 5 ml of Filter Count™ (Packard Instrument) and counted in a liquid scintillation counter.
The cGMP saturation binding assay was employed (FIG. 14) using recombinant PDE5 without (filled squares) or with preincubation with monoclonal antibodies mAb/P3B2 (filled circles) or mAb/P4D4 (filled triangles) for 30 min on ice, to determine the Kd for cGMP binding. The binding assays were performed with 0.01-20 μM cGMP in the presence of […] for 30 min on ice. The specific binding (cpm) is calculated by subtraction of nonspecific binding from total binding. […] A linear scatchard plot of the cGMP binding data indicated one class of cGMP-binding sites. […]

The target in assay [3] is T1, recombinant mouse PDE5. In words: PDE5 activity assay of recombinant mouse PDE5 expressed in HEK 293 cells. The assay is classed as biochemical. To be noted: assayed at 10 μM cGMP.
In a further assay the target is T3, bovine cGB-PDE (Bos taurus, UniProt Q28156).
T3 construct: which contains the entire coding region of cGB-8; made in house; host or cells: COS-7 cells, whole-cell extract
Nature of the assay: [3H]cGMP-binding assay of extracts of COS-7 cells transfected with pCDM8-cGB-PDE. As to the method: Cell extracts were assayed for [^3H]cGMP-binding activity in the absence or presence of 0.2 mM 3-isobutyl-1-methylaxanthine (IBMX) (Sigma), a competitive inhibitor of cGMP hydrolysis. The cGMP binding assay, modified from the assay described in Thomas I, supra, was conducted in a total volume of 80 μl. […] Assays were carried out in the absence and presence of 0.2 mM IBMX. The reaction was initiated by the addition of the cell extract, and was incubated for 60 minutes at 0° C. Filtration of the reaction mixtures was carried out as described in Thomas I, supra. Blanks were determined by parallel incubations with homogenization buffer replacing cell extracts, or with a 100-fold excess of unlabelled cGMP.
Results of the assay are set out in FIG. 7. […] The ability of IBMX to stimulate cGMP binding 2-5 fold is a distinctive property of the cGMP-binding phosphodisterases.
Results are presented in FIG. 8 wherein cGMP binding in the absence of unlabelled competitor was taken as 100% and each data point represents the average of three separate determinations.

For another assay, the target named is D289A mutant cGB-PDE (Bos taurus, UniProt Q28156, D289A). Nature of the assay: cGMP-binding kinetics of D289A mutant cGB-PDE.
In assay [4] the target is native cGB-PDE and WT cGB-PDE (Bos taurus, UniProt Q28156). In words: cGMP-binding kinetics of native and recombinant wild type cGB-PDE. Set-up: species or system bovine.
Another assay has as its target cGB-PDE (Bos taurus, UniProt Q28156). Nature of the assay: Metal dependence of cGB-PDE PDE activity. The assay is classed as biochemical. On the procedure: The catalytic domains of mammalian PDEs and a Drosophila PDE contain two tandem conserved sequences (HX3 HX24 26 E) that are typical Zn^2+-binding motifs in Zn^2+ hydrolases such as thermolysin (Vallee and Auld, Biochem., 29: 5647-5659 (1990)). cGB-PDE binds Zn^2+ in the presence of large excesses of Mg^2+, Mn^2+, Fe^2+, Fe^3+, Ca^2+ or Cd^2+. In the absence of added metal, cGB-PDE has a PDE activity that is approximately 20% of the maximum activity that occurs in the presence of 40 mM Mg^2+, and this basal activity is inhibited by 1,10-phenanthroline or EDTA. […] PDE activity is stimulated by addition of Zn^2+ (0.02-1 μM) or Co^2+([…]), but not by Fe^2+, Fe^3+, Ca^2+, Cd^2+, or Cu^2+. Zn increases the basal PDE activity up to 70% of the maximum stimulation produced by 40 mM Mg^2+. The stimulatory effect of Zn^2+ in these assays may be compromised by an inhibitory effect that is caused by Zn^2+ concentrations>1 μM. The Zn^2+-supported PDE activity and Zn^2+ binding by cGB-PDE occur at similar concentrations of Zn^2+ cGB-PDE thus appears to be a Zn^2+ hydrolase and Zn^2+ appears to play a critical role in the activity of the enzyme. See, Colbran et al., The FASEB J., 8: Abstract 2148 (Mar. 15, 1994).

[5] abbreviates: activated PDE5 (preincubated with 50 μM cGMP).

Source text for D289A mutant cGB-PDE: This curvilinearity may have been due to the presence of distinct high affinity (slow) and low affinity (fast) sites of cGMP binding.

A word on the pIC50: it is the negative decadic logarithm of the IC50, by convention in mol/L. Consider `COc1ccc(C2CNC(=O)C2)cc1OC1CCCC1` (stereo not drawn) [rolipram], for which the pIC50 in assay [1] was under 3.52.

A word on the pKd: it is the negative decadic logarithm of the Kd, by convention in mol/L. Broadly, the Km is the substrate concentration at which the rate is half of its maximum. As to `Nc1nc2c(ncn2[C@@H]2O[C@@H]3COP(=O)(O)O[C@H]3[C@H]2O)c(=O)[nH]1` [cGMP], the pKd on D478A mutant cGB-PDE is about 6.30; at recombinant PDE5 it was 6.92; on D289A mutant cGB-PDE (read-out: Kd of cGMP binding), under 4.70; in assay [4], about 5.70. Further, the “t1/2 of single cGMP-dissociation rate” value at D478A mutant cGB-PDE came out at 2.8 h. Also, the Michaelis-Menten constant (Km) at recombinant mouse PDE5 [2] (setting [5]) was determined as 960 nM; at recombinant mouse PDE5 [2] (non-activated PDE5 (mAb/P3B2 treated), read-out: Km for cGMP), 4600 nM. In addition, the Vmax on recombinant mouse PDE5 [2] (setting [5]) was 27 pmol/min/μg of protein; at recombinant mouse PDE5 [2] (non-activated PDE5 (mAb/P3B2 treated)), 8.9 pmol/min/μg of protein. For the same compound, the “PDE5 activation after preincubation with 50 μM cGMP” value on recombinant mouse PDE5 [2] (assayed at 0.1 μM cGMP, 5 min 30° C., 15 min preincubation on ice) is given as 10 times; on recombinant mouse PDE5 [2] (assayed at 1.0 μM cGMP) it was 2-3 times; on recombinant mouse PDE5 [3], “not detectable”. For the same compound, at bovine cGB-PDE (2.5 μM [3H]cGMP), the “excess concentration of unlabelled competitor required to inhibit [3H]cGMP binding by 50%” value was “Less than 10 fold higher concentrations”. For the same compound, the “t1/2 of single rate of cGMP-association” value on D289A mutant cGB-PDE turned out to be 30 min.

Regarding `c1cnc2c(c1)ccc1cccnc12` [1,10-phenanthroline], at cGB-PDE, the “effect on basal PDE activity in absence of added metal” value is given as “inhibited”.

As for `CCCOc1ccccc1-c1nc2nn[nH]c2c(=O)[nH]1`, in assay [1], the pIC50 is 5.70.

As to `CCCc1nn(C)c2c(=O)[nH]c(-c3cc(S(=O)(=O)N4CCN(C)CC4)ccc3OCC)nc12` [sildenafil], at recombinant mouse PDE5 [2] (0.2 μM sildenafil in preincubation mixture), the “time PDE5 activation was sustained during preincubation with 50 μM cGMP” value is listed as “at least 90 min”. Besides, the pIC50 on recombinant mouse PDE5 [2] (activated PDE5, assayed at 0.1 μM cGMP) is 9.22; on recombinant mouse PDE5 [2] (activated PDE5, assayed at 1.0 μM cGMP), 8.92; on recombinant mouse PDE5 [2] (control PDE5, assayed at 0.1 μM cGMP), 8.68; on recombinant mouse PDE5 [2] (control PDE5, assayed at 1.0 μM cGMP), 8.31.

Consider `O=C(O)CN(CCN(CC(=O)O)CC(=O)O)CC(=O)O` [EDTA], for which the “effect on basal PDE activity in absence of added metal” value on cGB-PDE was “inhibited”.

Turning to `CC(C)Cn1c(=O)n(C)c(=O)c2[nH]cnc21` [IBMX, 3-isobutyl-1-methylaxanthine], at bovine cGB-PDE (0.2 mM IBMX, 1 μM [3H]cGMP), the “stimulation of cGMP binding” value was “approximately 1.8 fold”.
